# Assay results published in the supplement of paper PMC10331698.
# ± gives the standard deviation of the averaged measurements.
# Columns and labels:
# Assay in all cases: level (log10 ratio to DMSO vehicle control); higher = higher biomarker level / cell amount than vehicle control
# [1] = compound: CN(C(=O)C(F)(F)C(F)(F)C(F)(F)F)[Si](C)(C)C [N-Methyl-N-trimethylsilylheptafluorobutyramide] (in DMSO)
# Protocol: (§1)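 BioMAP Diversity Plus panel of 12 human primary cell co-culture systems (3C, 4H, LPS, SAg, BT, BF4T, BE3C, CASM3C, HDF3CGF, KF3CT, MyoF, Mphg). Compounds were added 1 h before stimulation and left for 24 h (MyoF 48 h; BT 72 h for soluble read-outs or 6 d for IgG). Biomarkers were read by ELISA, cytotoxicity by SRB, PBMC viability and proliferation by Alamar Blue. Each well value was divided by the mean of 8 DMSO control wells on the same plate and log10 transformed; duplicate blinded samples were tested at 4 concentrations.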
# [2] = compound: O=C(O)C(F)(F)C(F)(F)C(F)(F)OC(F)(F)F [Perfluoro(4-methoxybutanoic) acid] (in DMSO)
# Protocol: as §1
# [3] = compound: O=C(O)CCC(F)(C(F)(F)F)C(F)(F)F [4,4-bis(Trifluoromethyl)-4-fluoropropanoic acid] (in DMSO)
# Protocol: as §1
# [4] = compound: OCC(F)(F)C(F)(F)C(F)(F)C(F)(F)C(F)(F)C(F)(F)CO [1H,1H,8H,8H-Perfluorooctane-1,8-diol] (in DMSO)
# Protocol: as §1
# [5] = compound: O=C(O)C(F)(OC(F)(F)C(F)(OC(F)(F)C(F)(OC(F)(F)C(F)(F)C(F)(F)F)C(F)(F)F)C(F)(F)F)C(F)(F)F [Perfluoro-(2,5,8-trimethyl-3,6,9-trioxadodecanoic)acid] (in DMSO)
# Protocol: as §1
# [6] = compound: C[C@@H]1C[C@H]2[C@@H]3CCC4=CC(=O)C=C[C@]4(C)[C@@]3(F)[C@@H](O)C[C@]2(C)[C@@]1(O)C(=O)COP(=O)(O)O [Dexamethasone sodium phosphate] (in DMSO)
# Protocol: as §1
Test System,level (log10) ([1]; 6700 nM),level (log10) ([1]; 20000 nM),level (log10) ([1]; 60000 nM),level (log10) ([2]; 6700 nM),level (log10) ([2]; 20000 nM),level (log10) ([2]; 60000 nM),level (log10) ([3]; 6700 nM),level (log10) ([3]; 20000 nM),level (log10) ([3]; 60000 nM),level (log10) ([4]; 6700 nM),level (log10) ([4]; 20000 nM),level (log10) ([4]; 60000 nM),level (log10) ([5]; 1100 nM),level (log10) ([5]; 3300 nM),level (log10) ([5]; 10000 nM),level (log10) ([6]; 1500 nM),level (log10) ([6]; 4400 nM),level (log10) ([6]; 13000 nM),level (log10) ([6]; 40000 nM)
HDF3CGF:CD106/VCAM-1,-0.0155 ± 0.0092,-0.0165 ± 0.0021,-0.024 ± 0.0028,-0.01 ± 0.027,-0.0185 ± 0.011,-0.036 ± 0.059,-0.0525 ± 0.069,-0.0555 ± 0.12,-0.0835 ± 0.12,0.02 ± 0.033,0.0365 ± 0.00071,0.017 ± 0.052,0.001 ± 0.017,-0.03 ± 0.021,-0.0385 ± 0.07,-0.006 ± 0.057,-0.0145 ± 0.035,-0.054 ± 0.045,-0.121 ± 0.073
HDF3CGF:CXCL8/IL-8,-0.0015 ± 0.0092,-0.003 ± 0.0057,0.0075 ± 0.0078,0.005 ± 0.0057,0.0015 ± 0.00071,0.008,-0.0105 ± 0.013,-0.0005 ± 0.0092,0.0065 ± 0.03,0.002 ± 0.0071,-0.0015 ± 0.005,0.009 ± 0.0099,0.0005 ± 0.00071,0 ± 0.0071,0.004 ± 0.0014,-0.039 ± 0.014,-0.0725 ± 0.005,-0.0645 ± 0.018,-0.0515 ± 0.039
HDF3CGF:CXCL9/MIG,-0.0105 ± 0.0035,-0.004 ± 0.0057,-0.009 ± 0.018,-0.0085 ± 0.0035,0.0025 ± 0.0064,-0.005 ± 0.037,-0.0105 ± 0.039,-0.0215 ± 0.056,-0.0305 ± 0.054,0.0025 ± 0.0021,0.045 ± 0.011,0.0245 ± 0.056,-0.0165 ± 0.005,0.005 ± 0.0057,-0.023 ± 0.02,0.042 ± 0.037,0.067 ± 0.018,0.0555 ± 0.029,0.0435 ± 0.042
HDF3CGF:CXCL10/IP-10,0.0155 ± 0.00071,0.0165 ± 0.013,0.005 ± 0.0028,0.0145 ± 0.016,-0.004 ± 0.0042,-0.004 ± 0.0099,-0.0175 ± 0.084,-0.0415 ± 0.088,-0.0395 ± 0.035,-0.01 ± 0.014,0.018 ± 0.027,0.021 ± 0.034,0 ± 0.0085,-0.01 ± 0.0085,0.0185 ± 0.026,0.034 ± 0.025,0.0615 ± 0.052,0.06 ± 0.057,0.009 ± 0.072
HDF3CGF:CXCL11/I-TAC,-0.0135 ± 0.0035,-0.015 ± 0.0099,-0.03,-0.0035 ± 0.005,0.0045 ± 0.0078,-0.0075 ± 0.0035,-0.035 ± 0.079,-0.0465 ± 0.074,-0.0745 ± 0.12,0.0145 ± 0.016,0.027 ± 0.017,0.017 ± 0.013,-0.0015 ± 0.011,0.003 ± 0.014,-0.0265 ± 0.033,0.0425 ± 0.00071,0.079 ± 0.082,0.0905 ± 0.012,0.0355 ± 0.087
HDF3CGF:Collagen I,-0.058 ± 0.021,-0.0195 ± 0.053,-0.0335 ± 0.039,-0.0125 ± 0.015,0.0115 ± 0.049,0.033 ± 0.061,-0.0105 ± 0.025,-0.0025 ± 0.028,0.0195 ± 0.026,0.0025 ± 0.012,0.025 ± 0.016,0.0085 ± 0.035,0.027 ± 0.0028,-0.014 ± 0.051,0.0475 ± 0.013,-0.0005 ± 0.1,-0.016 ± 0.047,-0.0155 ± 0.023,0.0075 ± 0.005
HDF3CGF:Collagen III,0.0005 ± 0.00071,-0.0175 ± 0.005,-0.0675 ± 0.037,0.0075 ± 0.033,0 ± 0.0099,-0.007 ± 0.021,-0.005 ± 0.04,-0.0495 ± 0.11,-0.0455 ± 0.04,-0.0175 ± 0.013,-0.0195 ± 0.0092,-0.016 ± 0.0057,-0.064 ± 0.072,0.014 ± 0.048,0.0695 ± 0.023,-0.0625 ± 0.12,-0.048 ± 0.052,-0.079 ± 0.05,-0.0675 ± 0.056
HDF3CGF:EGFR,-0.0055 ± 0.005,-0.005,0.0195 ± 0.0092,-0.002 ± 0.072,0.02 ± 0.055,0.0015 ± 0.053,-0.05 ± 0.028,-0.0445 ± 0.04,-0.013 ± 0.033,0.006 ± 0.023,0.001 ± 0.018,-0.0185 ± 0.026,-0.0365 ± 0.15,-0.113 ± 0.16,0.025 ± 0.04,-0.0145 ± 0.086,-0.043 ± 0.071,-0.039 ± 0.076,0.019 ± 0.014
HDF3CGF:M-CSF,-0.0375 ± 0.03,-0.038 ± 0.0085,-0.029 ± 0.055,-0.0135 ± 0.0035,-0.0075 ± 0.005,0.0115 ± 0.039,-0.0205 ± 0.081,-0.0565 ± 0.13,-0.0735 ± 0.15,0.0115 ± 0.029,0.015 ± 0.0085,0.0535 ± 0.054,0.0165 ± 0.0064,0.0005 ± 0.033,-0.03 ± 0.092,0.0645 ± 0.053,0.049 ± 0.096,0.0505 ± 0.094,0.0175 ± 0.13
HDF3CGF:MMP-1,-0.0195 ± 0.016,-0.015 ± 0.014,-0.008 ± 0.045,-0.0015 ± 0.015,-0.015 ± 0.0028,-0.0235 ± 0.0021,0.0015 ± 0.015,-0.0075 ± 0.029,-0.0145 ± 0.054,0.0005 ± 0.013,-0.0025 ± 0.013,0.008 ± 0.0071,0.029 ± 0.018,0.023 ± 0.0028,-0.0075 ± 0.0021,-0.0695 ± 0.011,-0.065 ± 0.016,-0.098 ± 0.018,-0.081 ± 0.042
HDF3CGF:PAI-I,-0.013 ± 0.0042,0.0015 ± 0.023,0.0385 ± 0.04,-0.009 ± 0.0042,-0.0135 ± 0.0078,-0.001 ± 0.014,0.0145 ± 0.011,-0.0095 ± 0.00071,-0.014 ± 0.024,-0.0085 ± 0.0092,-0.026 ± 0.0057,-0.023 ± 0.017,0.049 ± 0.078,0.056 ± 0.076,0.062 ± 0.047,0.091 ± 0.011,0.0875 ± 0.0035,0.072 ± 0.0042,0.039 ± 0.0099
HDF3CGF:Proliferation 72hr,0.0075 ± 0.013,0.052 ± 0.042,0.0225 ± 0.011,-0.003 ± 0.047,0.0295 ± 0.0021,-0.003 ± 0.031,-0.0275 ± 0.035,0.0025 ± 0.028,0.037 ± 0.0014,-0.04 ± 0.013,-0.0035 ± 0.026,-0.102 ± 0.027,-0.0205 ± 0.011,0.038 ± 0.0099,0.0395 ± 0.028,0.0165 ± 0.011,-0.0255 ± 0.047,0.0645 ± 0.015,0.095 ± 0.064
HDF3CGF:SRB,-0.048 ± 0.0028,-0.0015 ± 0.056,0.0205 ± 0.086,0.006 ± 0.0071,0.011 ± 0.047,0.0125 ± 0.04,-0.0385 ± 0.07,-0.0245 ± 0.042,0.045 ± 0.041,-0.043 ± 0.052,-0.0135 ± 0.056,-0.0405 ± 0.1,-0.009 ± 0.023,0.0075 ± 0.011,0.027 ± 0.0071,0.0165 ± 0.0064,0.0285 ± 0.025,0.0515 ± 0.03,0.0415 ± 0.07
HDF3CGF:TIMP-1,-0.036 ± 0.017,-0.038 ± 0.018,-0.031 ± 0.0071,-0.0005 ± 0.035,0.0105 ± 0.067,0.0195 ± 0.042,-0.022 ± 0.041,-0.021 ± 0.044,-0.036 ± 0.092,-0.002 ± 0.0071,-0.003 ± 0.0085,0.019 ± 0.025,-0.0095 ± 0.04,0.003 ± 0.03,0.0065 ± 0.011,-0.0755 ± 0.04,-0.0735 ± 0.053,-0.112 ± 0.07,-0.175 ± 0.081
HDF3CGF:TIMP-2,-0.0155 ± 0.036,0.002 ± 0.017,-0.0065 ± 0.049,0.019 ± 0.025,0.029 ± 0.055,0.005 ± 0.057,-0.042 ± 0.052,-0.041 ± 0.045,-0.0265 ± 0.013,0.003 ± 0.0014,0.0255 ± 0.0035,0.0145 ± 0.00071,0.011 ± 0.0042,-0.0035 ± 0.0064,-0.013 ± 0.047,0.0475 ± 0.028,0.062 ± 0.081,0.061 ± 0.065,0.0585 ± 0.0021
